These results are taken from ChEMBL document CHEMBL1143637, “Solid-phase binding assays of peptides using EGFP-Src SH2 domain fusion protein and biotinylated Src SH2 domain” (Bioorg Med Chem Lett, 2005).

By IC50 is commonly meant the concentration needed to halve the response being measured. A high value points to lower potency.

The assay deals with Proto-oncogene tyrosine-protein kinase Src (Homo sapiens, UniProt P12931). As to the kind of experiment: Inhibitory concentration against Src protein tyrosine kinase SH2 domain.
Proto-oncogene tyrosine-protein kinase Src, sequence (P12931 2-536 limits assumed): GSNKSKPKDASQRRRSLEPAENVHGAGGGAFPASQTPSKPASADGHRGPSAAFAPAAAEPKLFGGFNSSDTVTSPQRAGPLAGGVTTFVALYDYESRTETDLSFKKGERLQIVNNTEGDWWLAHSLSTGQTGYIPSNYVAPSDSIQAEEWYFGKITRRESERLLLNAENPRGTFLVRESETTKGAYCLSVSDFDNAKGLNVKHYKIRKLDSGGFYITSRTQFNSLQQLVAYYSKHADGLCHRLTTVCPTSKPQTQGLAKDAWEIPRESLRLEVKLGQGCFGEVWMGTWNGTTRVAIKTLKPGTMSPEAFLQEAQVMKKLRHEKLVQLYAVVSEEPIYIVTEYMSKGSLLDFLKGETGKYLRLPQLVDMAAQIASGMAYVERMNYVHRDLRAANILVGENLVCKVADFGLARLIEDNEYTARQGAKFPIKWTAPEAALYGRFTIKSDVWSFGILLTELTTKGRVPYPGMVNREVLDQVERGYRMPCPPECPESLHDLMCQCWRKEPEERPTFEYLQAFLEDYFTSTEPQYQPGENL
Take `CC[C@H](C)[C@H](N)C(=O)N[C@@H](CCC(=O)O)C(=O)N[C@@H](CCC(=O)O)C(=O)N[C@@H](Cc1ccc(O)cc1)C(=O)O`: the IC50 is more than 100 µM.

`CC[C@H](C)[C@H](NC(=O)[C@H](CCC(=O)O)NC(=O)[C@H](CCC(=O)O)NC(=O)[C@@H](N)Cc1ccccc1)C(=O)O` registered a half-maximal inhibitory concentration (IC50) of more than 100 µM. As for `CC[C@H](C)[C@H](N)C(=O)N[C@@H](CCC(=O)O)C(=O)N[C@@H](CCC(=O)O)C(=O)N[C@@H](Cc1ccccc1)C(=O)O`, the half-inhibitory concentration (IC50) was more than 100 µM. `CC[C@H](C)[C@H](NC(=O)[C@H](CCC(=O)O)NC(=O)[C@H](CCC(=O)O)NC(=O)[C@@H](N)Cc1ccc(O)cc1)C(=O)O` returned an IC50 of more than 100 µM.

As for `CC[C@H](C)[C@H](N)C(=O)N[C@@H](CCC(=O)O)C(=O)N[C@@H](CCC(=O)O)C(=O)N[C@@H](Cc1ccc(OP(=O)(O)O)cc1)C(=O)O`, the IC50 was more than 100 µM.
